Legend:
A. niger 16404 = assay: In vitro antifungal activity, MIC (modified Autotiter method); type: cell-based, Aspergillus niger; settings: 18-20 hours at 37° C.; for MIC: Aspergillus niger, 16404, 20 h, read-out: MIC A. niger 16404
Method: (§1) The antibacterial and antifungal activity of representative examples of the compounds of Formula I was determined using a modification of the Autotiter method described by Goss, et al. Applied Microbiology 16 (9) 1,414-1,416 (1968) in which a 1,000 mcg./ml. solution of the test compound is prepared. To the first cup of the Autotray is added 0.1 ml. of the test solution. Activation of the Autotiter initiates a sequence of operations by which 0.05 ml. of the test compound solution is withdrawn from the cup by a Microtiter transfer loop and diluted in 0.05 ml. of sterile water. Following this operation, 0.05 ml. of inoculated double-strength semisynthetic medium (glucose) is added automatically to each cup. The overall operation results in final drug concentrations ranging from 500 to 0.06 mcg./ml. in twofold decrements. […] The compounds were thus tested as solutions against a variety of gram positive and gram negative bacteria including Staphylococcus aureus, Proteus mirabilis, Escherichia coli, Klebsiella pneumoniae, Pseudomonas aeruginosa, Streptococcus pyogenes, and against such fungi as Aspergillus niger, Candida albicans and Trichophyton mentagrophytes.

Ps. aerug. MGH-2 = assay: In vitro antibacterial activity, MIC (modified Autotiter method); type: cell-based, Pseudomonas aeruginosa; settings: 18-20 hours at 37° C.; for MIC: Pseudomonas aeruginosa, 20 h, read-out: MIC Ps. aerug. MGH-2
Method: as §1

C. albicans Wisc. = assay: In vitro antifungal activity, MIC (modified Autotiter method); type: cell-based, Candida albicans; settings: Candida albicans, 20 h, 18-20 hours at 37° C.; read-out: MIC C. albicans Wisc.
Method: as §1

C. albicans 10231 = assay: as above; type: cell-based, Candida albicans; settings: 18-20 hours at 37° C.; for MIC: Candida albicans, 10231, 20 h, read-out: MIC C. albicans 10231
Method: as §1

S. Aureus Smith = assay: In vitro antibacterial activity, MIC (modified Autotiter method); type: cell-based, Staphylococcus aureus; settings: 18-20 hours at 37° C.; for MIC: Staphylococcus aureus, 20 h, read-out: MIC S. Aureus Smith
Method: as §1

P. mirab. MGH-1 = assay: as above; type: cell-based, Proteus mirabilis; settings: 18-20 hours at 37° C.; for MIC: Proteus mirabilis, 20 h, read-out: MIC P. mirab. MGH-1
Method: as §1

K. pneum. 39645 = assay: as above; type: cell-based, Klebsiella pneumoniae; settings: 18-20 hours at 37° C.; for MIC: Klebsiella pneumoniae, 20 h, read-out: MIC K. pneum. 39645
Method: as §1

S. pyogen. C203 = assay: as above; type: cell-based, Streptococcus pyogenes; settings: 18-20 hours at 37° C.; for MIC: Streptococcus pyogenes, 20 h, read-out: MIC S. pyogen. C203
Method: as §1

E. coli Vogel = assay: as above; type: cell-based, Escherichia coli; settings: 18-20 hours at 37° C.; for MIC: Escherichia coli, 20 h, read-out: MIC E. coli Vogel
Method: as §1

E. coli 100/B22 = assay: as above; type: cell-based, Escherichia coli; settings: Escherichia coli, 100/B22, 20 h, 18-20 hours at 37° C.; read-out: MIC E. coli 100/B22
Method: as §1

E. coli AB1932-1 = assay: as above; type: cell-based, Escherichia coli; settings: 18-20 hours at 37° C.; for MIC: Escherichia coli, AB19321, 20 h, read-out: MIC E. coli AB1932-1
Method: as §1

T. menta. 9129 = assay: In vitro antifungal activity, MIC (modified Autotiter method); type: cell-based, Trichophyton mentagrophytes; settings: 18-20 hours at 37° C.; for MIC: Trichophyton mentagrophytes, 20 h, read-out: MIC T. menta. 9129
Method: as §1

## CCCCCCNc1cc[n+](CCCCCCCCCCCC[n+]2ccc(NCCCCCC)cc2)cc1 [Example 8]
A. niger 16404
  MIC A. niger 16404: 7.8 µg/mL
Ps. aerug. MGH-2
  MIC: 15.6 µg/mL
C. albicans Wisc.
  MIC: 1 µg/mL
C. albicans 10231
  MIC: 1 µg/mL
S. Aureus Smith
  MIC: 0.25 µg/mL
P. mirab. MGH-1
  MIC: 7.8 µg/mL
K. pneum. 39645
  MIC: 1 µg/mL
S. pyogen. C203
  MIC: 1 µg/mL
E. coli Vogel
  MIC E. coli Vogel: 1.0 µg/mL
E. coli 100/B22
  MIC: 0.5 µg/mL
E. coli AB1932-1
  MIC E. coli AB1932-1: 1.0 µg/mL
T. menta. 9129
  MIC T. menta. 9129: 1.0 µg/mL

## CCCCCCCCNc1cc[n+](CCCCCCCCCC[n+]2ccc(NCCCCCCCC)cc2)cc1 [Example 10C, 1,10-bis-[4-(octylamino)-1-pyridinium]decane bis(1-oxo-2-pyridinethiolate)]
A. niger 16404
  MIC A. niger 16404: 1.95 µg/mL
Ps. aerug. MGH-2
  MIC Ps. aerug. MGH-2: 3.9 µg/mL
C. albicans 10231
  MIC C. albicans 10231: 1.0 µg/mL
S. Aureus Smith
  MIC S. Aureus Smith: 1.0 µg/mL
P. mirab. MGH-1
  MIC P. mirab. MGH-1: 1.95 µg/mL
K. pneum. 39645
  MIC K. pneum. 39645: 1.95 µg/mL
S. pyogen. C203
  MIC S. pyogen. C203: 0.5 µg/mL
E. coli Vogel
  MIC E. coli Vogel: 1.0 µg/mL
T. menta. 9129
  MIC T. menta. 9129: 1.0 µg/mL

## CCCCCCNc1cc[n+](CCCCCCCCC[n+]2ccc(NCCCCCC)cc2)cc1 [Example 19, 1,9-bis-[4-(hexylamino)-1-pyridinium]-nonane dibromide]
A. niger 16404
  MIC: 15.6 µg/mL
Ps. aerug. MGH-2
  MIC: 125 µg/mL
C. albicans Wisc.
  MIC: 3.9 µg/mL
C. albicans 10231
  MIC: 1.95 µg/mL
S. Aureus Smith
  MIC: 0.39 µg/mL
P. mirab. MGH-1
  MIC: 125 µg/mL
K. pneum. 39645
  MIC: 3.9 µg/mL
S. pyogen. C203
  MIC: 0.49 µg/mL
E. coli Vogel
  MIC: 1.95 µg/mL
E. coli 100/B22
  MIC: 1.95 µg/mL
E. coli AB1932-1
  MIC: 1.95 µg/mL
T. menta. 9129
  MIC: 3.9 µg/mL

## CCCCCCCNc1cc[n+](CCCC[n+]2ccc(NCCCCCCC)cc2)cc1 [Example 20, 1,4-bis-[4-(heptylamino)-1-pyridinium]butane dibromide]
A. niger 16404
  MIC: 15.6 µg/mL
Ps. aerug. MGH-2
  MIC: > 250 µg/mL
C. albicans Wisc.
  MIC: 15.6 µg/mL
C. albicans 10231
  MIC: 15.6 µg/mL
S. Aureus Smith
  MIC: 0.98 µg/mL
P. mirab. MGH-1
  MIC: > 250 µg/mL
K. pneum. 39645
  MIC: > 125 µg/mL
S. pyogen. C203
  MIC: 0.49 µg/mL
E. coli Vogel
  MIC: 31.3 µg/mL
E. coli 100/B22
  MIC: 15.6 µg/mL
E. coli AB1932-1
  MIC: 7.8 µg/mL
T. menta. 9129
  MIC: 3.9 µg/mL

## CCCNc1cc[n+](CCCCCCCCCC[n+]2ccc(NCCC)cc2)cc1 [Example 30, 1,10-bis-[4-(propylamino)-1-pyridinium]decane dibromide]
A. niger 16404
  MIC: 31.3 µg/mL
Ps. aerug. MGH-2
  MIC: > 62.5 µg/mL
C. albicans Wisc.
  MIC: 7.8 µg/mL
C. albicans 10231
  MIC: 15.6 µg/mL
S. Aureus Smith
  MIC: 1.95 µg/mL
P. mirab. MGH-1
  MIC: > 250 µg/mL
K. pneum. 39645
  MIC: > 62.5 µg/mL
S. pyogen. C203
  MIC: 3.9 µg/mL
E. coli Vogel
  MIC: > 62.5 µg/mL
E. coli 100/B22
  MIC: > 62.5 µg/mL
E. coli AB1932-1
  MIC: > 62.5 µg/mL
T. menta. 9129
  MIC: 1 µg/mL

## CCCCCCNc1cc[n+](CCCCCCCC[n+]2ccc(NCCCCCC)cc2)cc1 [Example 32, 1,8-bis-[4-(hexylamino)-1-pyridinium]octane dibromide]
A. niger 16404
  MIC: 7.8 µg/mL
Ps. aerug. MGH-2
  MIC: 125 µg/mL
C. albicans Wisc.
  MIC: 3.9 µg/mL
C. albicans 10231
  MIC: 3.9 µg/mL
S. Aureus Smith
  MIC: 0.24 µg/mL
P. mirab. MGH-1
  MIC: > 250 µg/mL
K. pneum. 39645
  MIC: 7.8 µg/mL
S. pyogen. C203
  MIC: 0.49 µg/mL
E. coli Vogel
  MIC: 3.9 µg/mL
E. coli 100/B22
  MIC: 3.9 µg/mL
E. coli AB1932-1
  MIC: 1.95 µg/mL
T. menta. 9129
  MIC: 7.8 µg/mL

## c1c[n+](CCCCCCCC[n+]2ccc(NC3CCCCC3)cc2)ccc1NC1CCCCC1 [Example 38, 1,8-bis-[4-(cyclohexylamino)-1-pyridinium]octane dibromide]
A. niger 16404
  MIC: 15.6 µg/mL
Ps. aerug. MGH-2
  MIC: 250 µg/mL
C. albicans Wisc.
  MIC: 31.3 µg/mL
C. albicans 10231
  MIC: 31.3 µg/mL
S. Aureus Smith
  MIC: 3.9 µg/mL
P. mirab. MGH-1
  MIC: > 125 µg/mL
K. pneum. 39645
  MIC: > 125 µg/mL
S. pyogen. C203
  MIC: 0.93 µg/mL
E. coli Vogel
  MIC: 62.5 µg/mL
E. coli 100/B22
  MIC: 62.5 µg/mL
E. coli AB1932-1
  MIC: 31.3 µg/mL
T. menta. 9129
  MIC: 3.9 µg/mL

## CCCCCCCCNc1cc[n+](CCCCCCC[n+]2ccc(NCCCCCCCC)cc2)cc1 [Example 43, 1,7-bis-[4-(octylamino)-1-pyridinium]heptane dibromide]
A. niger 16404
  MIC: 7.8 µg/mL
Ps. aerug. MGH-2
  MIC: 31.3 µg/mL
C. albicans Wisc.
  MIC: 1.95 µg/mL
C. albicans 10231
  MIC: 1.95 µg/mL
S. Aureus Smith
  MIC: 0.5 µg/mL
P. mirab. MGH-1
  MIC: 7.8 µg/mL
K. pneum. 39645
  MIC: 1 µg/mL
S. pyogen. C203
  MIC: 1 µg/mL
E. coli Vogel
  MIC: 1.95 µg/mL
E. coli 100/B22
  MIC: 1 µg/mL
E. coli AB1932-1
  MIC: 1 µg/mL
T. menta. 9129
  MIC: 1 µg/mL

Source: patent US4206215A, “Antimicrobial bis-[4-(substituted-amino)-1-pyridinium]alkanes” (Sterling Drug Inc., priority 1977, dated 1980)
